This assay has as its target human mGluR4 (Homo sapiens (Human), UniProt Q14833). The assay is described as follows: mGluR4 potentiation assay, CHO cells transfected with human mGluR4, Ca2+-sensitive dye, EC20 agonist. In kind it is cell-based. Conditions: potentiation of mGluR4. As for the experimental part: The disclosed compounds and compositions can be evaluated for their ability to act as a potentiator of metabotropic glutamate receptor activity, in particular mGluR4 activity, by any suitable known methodology known in the art. For example, Chinese Hamster Ovary (CHO) cells transfected with human mGluR4 or HEK cells co-transfected with rat mGluR4 and the G-protein regulated Inwardly Rectifying Potassium channel (GIRK) were plated in clear bottom assay plates for assay in a Hamamatsu FDSS Fluorometric Plate Reader. The cells were loaded with either a Ca2+-sensitive fluorescent dye or the thallium responsive dye and the plates were washed and placed into a suitable kinetic plate reader. For human mGluR4 assays, a fluorescence baseline was established for 3-5 seconds, the disclosed compounds were then added to the cells, and the response in cells was measured. Approximately two and a half minutes later, a concentration of mGluR4 orthosteric agonist (e.g. glutamate or L-AP4) eliciting approximately 20% (EC20) of the maximal agonist response was added to the cells, and the response was measured. Two minutes later, a concentration of mGluR4 agonist (e.g. glutamate or L-AP4) eliciting 80% (EC80) of the maximal agonist response was added to the cells, and the response was measured. For rat mGluR4/GIRK experiments, a baseline was established for approximately five seconds, disclosed compounds were added, and either an EC20 or EC80 concentration of agonist was added approximately two and one half minutes later. Potentiation of the agonist response of mGluR4 by the disclosed compounds was observed as an increase in response to the EC20 concentration of agonist in the presence of compound compared to the response to agonist in the absence of compound. Similarly, antagonism of the agonist response of mGluR4 by the disclosed compounds was observed as a decrease in response to the EC80 concentration of agonist in the presence of compound compared to the response to agonist in the absence of compound.
The above described assay operated in two modes. In the first mode, a range of concentrations of the disclosed compounds are added to cells, followed by a single fixed concentration of agonist. If the compound acts as a potentiatior, an EC50 value for potentiation and a maximum extent of potentiation by the compound at this concentration of agonist is determined by non-linear curve fitting. If the compound acts as a noncompetitive antagonist, an IC50 value is determined by non-linear curve fitting. In the second mode, several fixed concentrations of the disclosed compounds are added to various wells on a plate, followed by a range in concentrations of agonist for each concentration of disclosed compound. The EC50 values for the agonist at each concentration of compound are determined by non-linear curve fitting. A decrease in the EC50 value of the agonist with increasing concentrations of the sample compound (a leftward shift of the agonist concentration-response curve) is an indication of the degree of mGluR4 potentiation at a given concentration of the sample compound. A decrease in the maximal response of the agonist with increasing concentrations of the sample compounds, with or without a rightward shift in agonist potency, is an indication of the degree of noncompetitive antagonism at mGluR4. The second mode also indicates whether the sample compounds also affect the maximum response to mGluR4 to agonists.

[1] abbreviates: main compound table, species not given.
The mark [2] stands for this setting: summary list repeated at the end of the table, species not stated.

Results on 13 molecules are retold here after patent US10221172B2, “Benzothiazole and benzisothiazole-substituted compounds as mGluR4 allosteric potentiators, compositions, and methods of treating neurological dysfunction” (Vanderbilt University, priority 2015, dated 2019).

Sequence of human mGluR4 (Q14833 33-912): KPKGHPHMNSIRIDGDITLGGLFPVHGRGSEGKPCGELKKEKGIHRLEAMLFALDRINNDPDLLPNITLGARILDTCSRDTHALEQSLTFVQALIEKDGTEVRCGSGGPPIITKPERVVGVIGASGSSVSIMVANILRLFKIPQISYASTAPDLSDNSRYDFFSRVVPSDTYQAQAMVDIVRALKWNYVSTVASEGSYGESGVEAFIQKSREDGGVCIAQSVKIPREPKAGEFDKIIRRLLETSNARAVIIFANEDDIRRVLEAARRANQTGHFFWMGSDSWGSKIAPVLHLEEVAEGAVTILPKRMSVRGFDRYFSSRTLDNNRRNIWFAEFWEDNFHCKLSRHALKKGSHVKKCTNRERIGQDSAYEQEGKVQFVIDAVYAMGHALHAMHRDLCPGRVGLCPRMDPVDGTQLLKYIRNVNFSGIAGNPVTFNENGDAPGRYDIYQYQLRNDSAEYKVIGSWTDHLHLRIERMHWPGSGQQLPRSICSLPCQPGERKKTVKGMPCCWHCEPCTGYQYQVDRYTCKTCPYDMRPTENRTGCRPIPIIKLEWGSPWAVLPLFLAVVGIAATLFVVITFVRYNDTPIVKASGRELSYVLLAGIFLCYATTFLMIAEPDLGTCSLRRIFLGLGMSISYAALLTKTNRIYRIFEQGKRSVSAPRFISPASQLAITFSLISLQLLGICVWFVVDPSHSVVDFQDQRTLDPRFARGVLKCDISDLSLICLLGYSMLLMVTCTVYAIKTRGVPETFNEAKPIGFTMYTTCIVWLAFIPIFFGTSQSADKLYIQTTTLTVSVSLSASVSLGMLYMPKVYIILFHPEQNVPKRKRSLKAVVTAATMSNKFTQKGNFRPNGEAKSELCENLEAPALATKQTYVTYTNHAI

For orientation: EC50 means the concentration needed to bring the measured effect to its halfway point. For `CC(C)(C)Cc1nsc2cc(Nc3n[nH]c4nccnc34)cnc12` [Example 27, 3-neopentyl-N-(1H-pyrazolo[3,4-b]pyrazin-3-yl) isothiazole[4,5-b] pyridin-6-amine], the 50% effective concentration (EC50) came to 99.5 nM under setting [1] and 99.5 nM under setting [2].
As for `CC(C)(C)Cc1nsc2cc(Nc3n[nH]c4ncccc34)cnc12` [Example 28, 3-neopentyl-N-(1H-pyrazolo[3,4-b]pyridin-3-yl) isothiazolo[4,5-b] pyridin-6-amine], the half-maximal effective concentration (EC50) by setting is: under setting [1], 119 nM; under setting [2], 119 nM.
As to `FC(F)(F)c1nsc2cc(Nc3n[nH]c4ncccc34)ccc12` [Example 29, N-(1H-pyrazolo[3,4-b]pyridin-3-yl)-3-(trifluoromethyl)benzo[d] isothiazol-6-amine], the EC50 runs as follows: under setting [1], 1240 nM; under setting [2], 1240 nM.
As to `O=C(NC1CC(F)(F)C1)c1nsc2cc(Nc3n[nH]c4nccnc34)ccc12` [Example 30, 6-((1H-pyrazolo[3,4-b]pyrazin-3-yl)amino)-N-(3,3-difluorocyclobutyl) benzo[d] isothiazole-3-carboxamide], the EC50 under setting [1] was determined as 42.6 nM and the EC50 under setting [2] amounted to 42.6 nM.
As for `CN1CCC2(CCN(C(=O)c3nsc4cc(Nc5n[nH]c6nccnc56)ccc34)CC2)C1=O` [Example 31, 8-(6-((1H-pyrazolo[3,4-b]pyrazin-3-yl)amino)benzo[d]isothiazole-3-carbonyl)-2-methyl-2,8-diazaspiro[4.5]decan-1-one], the half-maximal effective concentration (EC50) under setting [1] amounted to 1210 nM and the EC50 under setting [2] stood at 1210 nM.
As for `CN1CCN(C(=O)c2nsc3cc(Nc4n[nH]c5nccnc45)ccc23)CC1=O` [Example 32, 4-(6-((1H-pyrazolo[3,4-b]pyrazin-3-yl)amino)benzo [d]isothiazole-3-carbonyl)-1-methylpiperazin-2-one], the concentration giving a half-maximal response (EC50) runs as follows: under setting [1], 1530 nM; under setting [2], 1530 nM.
Regarding `O=C(c1nsc2cc(Nc3n[nH]c4nccnc34)ccc12)N1CCC(F)(F)CC1` [Example 33, (6-((1H-pyrazolo[3,4-b]pyrazin-3-yl)amino)benzo[d]isothiazol-3-yl)(4,4-difluoropiperidin-1-yl) methanone], the concentration giving a half-maximal response (EC50) reads like this: under setting [1], 827 nM; under setting [2], 827 nM.
With `CC(=O)N1CCC(c2nsc3cc(Nc4n[nH]c5cccnc45)ccc23)CC1` [Example 35, 1-(4-(6-((1H-pyrazolo[4,3-b]pyridin-3-yl)amino)benzo[d]isothiazol-3-yl)piperidin-1-yl)ethan-1-one], the 50% effective concentration (EC50) by setting is: under setting [1], 199 nM; under setting [2], 199 nM.
Take `c1cnc2c(Nc3ccc4c(C5CC5)nsc4c3)n[nH]c2c1` [Example 36, 3-cyclopropyl-N-(1H-pyrazolo [4,3-b]pyridin-3-yl) benzo[d]isothiazol-6-amine]: the EC50 by setting is: under setting [1], 78.2 nM; under setting [2], 78.2 nM.
Take `c1cnc2c(Nc3ccc4c(C5CC5)nsc4c3)n[nH]c2n1` [Example 37, 3-cyclopropyl-N-(1H-pyrazolo [3,4-b]pyrazin-3-yl)benzo [d]isothiazol-6-amine]: the 50% effective concentration (EC50) by setting is: under setting [1], 61.1 nM; under setting [2], 61.1 nM.
In the case of `CC(C)(O)c1nsc2cc(Nc3n[nH]c4cccnc34)ccc12` [Example 38, 2-(6-((1H-pyrazolo [4,3-b]pyridin-3-yl)amino)benzo[d]isothiazol-3-yl)propan-2-ol], the EC50 runs as follows: under setting [1], 1030 nM; under setting [2], 1030 nM.
Take `Cc1nsc2cc(Nc3n[nH]c4cccnc34)cnc12` [Example 39, 3-methyl-N-(1H-pyrazolo [4,3-b]pyridin-3-yl)isothiazolo[4,5-b] pyridin-6-amine]: the half-maximal effective concentration (EC50) amounted to 157 nM under setting [1] and 157 nM under setting [2].
`CCC(C)c1nsc2cc(Nc3n[nH]c4cccnc34)cnc12` (centres unmarked) [Example 40, 3-(sec-butyl)-N-(1H-pyrazolo[4,3-b]pyridin-3-yl)isothiazolo[4,5-b] pyridin-6-amine]: the EC50 amounted to 54.2 nM under setting [1] and 54.2 nM under setting [2].
